Laboratory results from patent US11351176B2, “Combination therapy” (MEI Pharma, Inc., priority 2017, dated 2022).

Key:
[1] = tested on: relapsed B-cell Non-Hodgkin's Lymphoma (NHL), including Chronic Lymphocytic Leukemia (CLL); assay: Phase 1b study of Compound A35 and rituximab in patients with relapsed B-cell malignancies; format: in vivo, human
Method: Study of a Combination of a PI3K Inhibitor and a CD20 Inhibitor in Patients with Relapsed B-Cell Non-Hodgkin's Lymphoma (NHL), Including Chronic Lymphocytic Leukemia (CLL)
The purpose of this study is to evaluate the safety and effectiveness of Compound A35 (single dose: 60 mg/day) and rituximab, in patients with relapsed B-cell malignancies.
• Study Type: Interventional • Study Design: Intervention Model: Single Group Assignment • Masking: No masking • Primary Purpose: Treatment
Primary Outcome Measures: • Determine Acceptable Adverse Events That Are Related to Treatment [Time Frame: 6 months of therapy]. To determine the incidence of adverse events, any potential abnormal laboratory results and any dose-limiting toxicities Secondary Outcome Measures: • Efficacy of Compound A35 with Rituximab as assessed by Overall Response (OR) [Time Frame: 2 years]. The efficacy of Compound A35 with Rituximab will be determined by the overall response of subjects calculated as the percent of subjects achieving a complete remission (CR) or a complete remission with incomplete marrow recovery (CRi) or a partial response (PR) according to the International Workshop on Chronic Lymphocytic Leukemia (IWCLL). • Evaluate the PK of Compound A35 with Rituximab (AUC) [Time Frame: 2 years] Determined by the Area Under the Concentration time curve (AUC) • Evaluate the PK of Compound A35 with Rituximab (Cmax) [Time Frame: 2 years] Determined by Peak Plasma Concentration (Cmax)
Eligibility • Ages Eligible for Study: 18 Years and older (Adult, Senior) • Sexes Eligible for Study: All • Accepts Healthy Volunteers: No Criteria Inclusion Criteria: • Diagnosis of relapsed/refractory CLL SLL or FL, MZL, DLBCL and high-grade B-cell lymphoma.
Dosing of Compound A35 is done on a continuous dosing schedule (CS) or an intermittent dosing schedule (IS). On an IS, patients take 60 mg administered once a day on 7 consecutive days followed by 21 days without therapy, with cycles repeated every 28 days. On a CS, patients take 60 mg/day for the entirety of a 28 day cycle. All patients are started on a CS dosing regimen. Patients who complete two cycles of CS are switched to the IS.
In all cases, the dosing of rituximab is 375 mg/m2, administered for a total of 8 doses in 6 months.
15 patients were treated with a regimen consisting of rituximab 375 mg/m^2×8 doses over 6 months and Compound A35 at 60 mg on the CS for 2 cycles then switching to the IS.

[2] = tested on: relapsed chronic lymphocytic leukemia (CLL); settings: combination of idelalisib and a CD20 inhibitor (e.g., rituximab or ofatumumab); cited from earlier work

## CN1CCC(c2ccccc2CC(C)(C)Nc2nc(N3CCOCC3)nc(-n3c(C(F)F)nc4ccccc43)n2)CC1 [Compound A35]
[1]; in combination with rituximab 375 mg/m2 x 8 doses in 6 months, Compound A35 60 mg/day continuous schedule (CS), indolent NHL (9 FL, 1 MZL), 7 of 10 patients
  response (patients with a reported response): 70%
[1]; in combination with rituximab, 8 responders, median follow-up 5.2 months from enrollment
  disease progression on the IS among patients with a disease response after 2 cycles: none
[1]; in combination with rituximab, CS of Compound A35 60 mg/day, indolent NHL, 10 patients
  patients with disease progression, discontinued from the study: 1 patient
[1]; in combination with rituximab, CS, patients
  rate of response (in words): very high rate of response
[1]; in combination with rituximab, Compound A35 60 mg/day, DLBCL, 4 patients
  patients discontinued due to disease progression: 3 patients
[1]; in combination with rituximab, Compound A35 60 mg/day, DLBCL, 1 of 4 patients
  response (patients with a reported response): 25%
[1]; in combination with rituximab, after 2 cycles CS switched to intermittent schedule (IS, 60 mg 7 days on/21 days off), 1/10 patients, median follow-up 3.4 months on the IS
  patients who developed delayed immune-related toxicity: 10%
[1]; in combination with rituximab, intermittent schedule after 2 CS cycles, preliminary data
  effect of the IS on delayed onset immune toxicities and efficacy (in words): appears to reduce the incidence of delayed onset immune toxicities without erosion in treatment efficacy
[1]; in combination with rituximab, patients with relapsed indolent NHL and CLL/SLL
  rate of response (in words): very high rate of response
[1]; in combination with rituximab, relapsed indolent NHL and CLL/SLL
  durability of responses (in words): appear durable

## CC[C@H](Nc1ncnc2[nH]cnc12)c1nc2cccc(F)c2c(=O)n1-c1ccccc1 [idelalisib]
[2]
  risk of death due to infection and/or severe adverse effects (in words): alarming increase in the risk of death due to infection and/or severe adverse effects
